Test results taken from ChEMBL document CHEMBL5321272 (J Med Chem, 2023).
Active and inactive are the calls of the source. No cut-off for these calls is given here.

Tests used:
[1] = target: Mitogen-activated protein kinase kinase kinase 7 (Homo sapiens, UniProt O43318); assay: Inhibition of TAK1 (unknown origin) by HTRF assay
[2] = Selectivity ratio of IC50 for EGFR (unknown origin) to IC50 for FLT3-ITD mutant (unknown origin)
[3] = target: T1, Voltage-gated inwardly rectifying potassium channel KCNH2 (Homo sapiens, UniProt Q12809); assay: Inhibition of hERG expressed in HEK293 cells assessed as fast channel deactivation at 100 uM by whole cell patch clamp analysis; type: toxicity, cell-based; settings: hek293, 100 µM
T1 sequence (Q12809 whole entry): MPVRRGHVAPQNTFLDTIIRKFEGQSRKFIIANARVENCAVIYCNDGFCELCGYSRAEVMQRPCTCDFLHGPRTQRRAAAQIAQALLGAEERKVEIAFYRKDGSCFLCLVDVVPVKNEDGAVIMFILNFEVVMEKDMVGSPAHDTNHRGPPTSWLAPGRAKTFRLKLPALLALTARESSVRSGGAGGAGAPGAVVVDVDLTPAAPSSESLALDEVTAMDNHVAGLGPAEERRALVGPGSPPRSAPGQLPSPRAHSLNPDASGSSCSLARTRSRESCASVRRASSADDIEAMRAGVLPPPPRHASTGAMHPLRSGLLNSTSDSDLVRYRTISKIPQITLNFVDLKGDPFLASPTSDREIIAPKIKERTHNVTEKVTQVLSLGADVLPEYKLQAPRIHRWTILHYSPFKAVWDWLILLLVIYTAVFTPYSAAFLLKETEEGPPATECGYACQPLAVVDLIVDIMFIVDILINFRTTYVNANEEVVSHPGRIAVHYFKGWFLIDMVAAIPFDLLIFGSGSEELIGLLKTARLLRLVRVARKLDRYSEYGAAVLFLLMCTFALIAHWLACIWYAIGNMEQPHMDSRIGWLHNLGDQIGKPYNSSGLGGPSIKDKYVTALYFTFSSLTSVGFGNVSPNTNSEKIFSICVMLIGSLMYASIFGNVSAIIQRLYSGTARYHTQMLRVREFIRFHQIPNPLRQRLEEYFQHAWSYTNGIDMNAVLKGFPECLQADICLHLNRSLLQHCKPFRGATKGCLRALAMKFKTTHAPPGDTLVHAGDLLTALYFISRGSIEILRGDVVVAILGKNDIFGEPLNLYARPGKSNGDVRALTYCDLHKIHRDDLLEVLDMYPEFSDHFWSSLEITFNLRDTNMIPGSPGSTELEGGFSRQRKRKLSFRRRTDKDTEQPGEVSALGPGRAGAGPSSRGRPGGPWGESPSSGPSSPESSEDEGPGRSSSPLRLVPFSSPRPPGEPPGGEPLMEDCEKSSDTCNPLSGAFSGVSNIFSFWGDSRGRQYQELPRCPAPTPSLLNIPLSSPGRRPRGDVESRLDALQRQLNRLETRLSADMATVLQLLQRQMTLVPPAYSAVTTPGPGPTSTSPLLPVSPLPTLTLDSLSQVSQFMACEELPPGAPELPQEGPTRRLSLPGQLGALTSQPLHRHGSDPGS

[4] = Selectivity ratio of IC50 for PAK1 (unknown origin) to IC50 for FLT3-ITD mutant (unknown origin)
[5] = target: Receptor-type tyrosine-protein kinase FLT3 (Homo sapiens) (UniProt P36888); assay: Inhibition of FLT3 in human MV4-11 cells assessed as inhibition of ERK phosphorylation at Tyr204 residue at 20 nM measured after 90 mins by western blot analysis; type: cell-based
Sequence of Receptor-type tyrosine-protein kinase FLT3 (Homo sapiens) (P36888 whole entry): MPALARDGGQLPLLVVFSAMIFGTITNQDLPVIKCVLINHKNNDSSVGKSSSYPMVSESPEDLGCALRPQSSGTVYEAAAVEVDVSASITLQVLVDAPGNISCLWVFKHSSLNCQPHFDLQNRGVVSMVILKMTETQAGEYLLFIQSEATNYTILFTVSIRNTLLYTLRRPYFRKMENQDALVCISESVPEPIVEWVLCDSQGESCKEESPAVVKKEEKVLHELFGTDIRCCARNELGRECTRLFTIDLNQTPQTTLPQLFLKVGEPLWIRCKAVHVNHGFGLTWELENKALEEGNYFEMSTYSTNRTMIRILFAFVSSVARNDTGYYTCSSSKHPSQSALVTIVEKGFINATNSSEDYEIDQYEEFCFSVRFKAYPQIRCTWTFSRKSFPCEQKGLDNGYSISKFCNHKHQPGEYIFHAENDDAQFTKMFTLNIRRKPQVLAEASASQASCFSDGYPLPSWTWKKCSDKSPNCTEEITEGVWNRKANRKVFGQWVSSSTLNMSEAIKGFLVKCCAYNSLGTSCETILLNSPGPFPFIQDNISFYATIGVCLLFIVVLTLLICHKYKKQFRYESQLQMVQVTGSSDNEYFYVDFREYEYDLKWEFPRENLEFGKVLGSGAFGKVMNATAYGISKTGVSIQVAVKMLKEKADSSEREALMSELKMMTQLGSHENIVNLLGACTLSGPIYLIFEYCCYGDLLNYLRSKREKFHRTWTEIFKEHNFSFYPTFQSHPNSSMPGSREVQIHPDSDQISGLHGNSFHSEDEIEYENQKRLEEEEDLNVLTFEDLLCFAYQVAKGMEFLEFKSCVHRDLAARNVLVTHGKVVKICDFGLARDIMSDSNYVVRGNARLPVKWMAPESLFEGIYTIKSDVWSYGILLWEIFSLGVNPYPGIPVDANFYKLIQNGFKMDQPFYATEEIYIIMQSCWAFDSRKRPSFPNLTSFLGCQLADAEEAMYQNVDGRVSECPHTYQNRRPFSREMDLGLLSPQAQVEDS

MM1.S = assay: Antiproliferative activity against human MM1.S cells assessed as reduction in cell viability incubated for 72 hrs by CellTiter 96 Aqueous One Solution Cell Proliferation Assay; type: functional, cell-based
JeKo-1 = assay: Antiproliferative activity against human JeKo-1 cells assessed as reduction in cell viability incubated for 72 hrs by CellTiter 96 Aqueous One Solution Cell Proliferation Assay; type: functional, cell-based; settings: JeKo-1, 72 h
[6] = Toxicity against NSG mouse xenografted with human MOLM-13 cells assessed as body weight loss at 15 to 30 mg/kg, po qd for 26 days; type: organism-based; settings: in vivo, 624 h, dose 15-30 mg/kg, time 26 day
[7] = AUC (last) in ICR mouse at 10 mg/kg, po; type: ADME, organism-based; design: dose 10 mg/kg, route po; settings: in vivo
[8] = target: T1, Voltage-gated inwardly rectifying potassium channel KCNH2; assay: Inhibition of hERG expressed in HEK293 cells assessed as inhibition of channel current amplitude at 100 uM by whole cell patch clamp analysis; type: toxicity, cell-based; settings: hek293, 100 µM
[9] = target: T1, Voltage-gated inwardly rectifying potassium channel KCNH2; assay: Inhibition of hERG expressed in HEK293 cells assessed as inhibition of channel current amplitude by whole cell patch clamp analysis; type: toxicity, cell-based
[10] = Selectivity ratio of IC50 for CK1alpha (unknown origin) to IC50 for FLT3-ITD mutant (unknown origin)
[11] = target: T2, Serine/threonine-protein kinase Chk1 (Homo sapiens) (UniProt O14757); assay: Inhibition of CHK1 in human MV4-11 cells assessed as upregulation of p53 protein expression measured after 90 mins by western blot analysis; type: cell-based; settings: dose 50-200 nM
T2 sequence (whole entry): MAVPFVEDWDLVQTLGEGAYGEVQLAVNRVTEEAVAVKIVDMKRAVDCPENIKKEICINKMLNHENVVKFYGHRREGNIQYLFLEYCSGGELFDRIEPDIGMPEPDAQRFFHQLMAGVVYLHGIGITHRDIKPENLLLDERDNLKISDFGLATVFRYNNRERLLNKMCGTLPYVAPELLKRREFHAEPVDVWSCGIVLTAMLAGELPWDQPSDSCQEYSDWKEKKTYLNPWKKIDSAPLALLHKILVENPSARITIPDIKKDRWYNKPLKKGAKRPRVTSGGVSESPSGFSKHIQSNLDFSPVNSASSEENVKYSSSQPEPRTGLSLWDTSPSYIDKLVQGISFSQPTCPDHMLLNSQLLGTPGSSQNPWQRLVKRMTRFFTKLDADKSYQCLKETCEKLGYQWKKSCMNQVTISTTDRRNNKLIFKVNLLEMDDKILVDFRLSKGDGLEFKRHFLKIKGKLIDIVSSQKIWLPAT

MV4-11 [12] = assay: Antitumor activity against human MV4-11 cells xenografted in nu/nu mouse assessed as reduction in tumor weight at 3 mg/kg, po qd for 22 days; type: functional, organism-based; settings: time 22.0 day
[13] = target: Receptor-type tyrosine-protein kinase FLT3 (Homo sapiens, UniProt P36888, ITD); assay: Inhibition of FLT3 ITD mutant (unknown origin) by HTRF assay
Sequence of Receptor-type tyrosine-protein kinase FLT3 (P36888 whole entry, looked up, change not shown): as the sequence (P36888 whole entry) above

[14] = Acute toxicity in ICR mouse assessed as morphological changes in spleen at 300 mg/kg, ig and measured for 7 days by Hematoxylin-Eosin staining based analysis; type: organism-based; settings: in vivo, po, 168 h, time 7 day
[15] = MRT (infinity) in ICR mouse at 10 mg/kg, po; type: ADME, organism-based; settings: in vivo
[16] = target: T2, Serine/threonine-protein kinase Chk1 (Homo sapiens); assay: Inhibition of CHK1 in human MV4-11 cells assessed as increase in CHK1 phosphorylation at Ser345 residue at 50 to 200 nM measured after 90 mins by western blot analysis; type: cell-based; settings: dose 50-200 nM
[17] = Selectivity ratio of IC50 for HCK (unknown origin) to IC50 for FLT3-ITD mutant (unknown origin)
[18] = target: Hepatocyte growth factor receptor (Homo sapiens, UniProt P08581); assay: Inhibition of MET (unknown origin) by HTRF assay
Sequence of Hepatocyte growth factor receptor (P08581 whole entry): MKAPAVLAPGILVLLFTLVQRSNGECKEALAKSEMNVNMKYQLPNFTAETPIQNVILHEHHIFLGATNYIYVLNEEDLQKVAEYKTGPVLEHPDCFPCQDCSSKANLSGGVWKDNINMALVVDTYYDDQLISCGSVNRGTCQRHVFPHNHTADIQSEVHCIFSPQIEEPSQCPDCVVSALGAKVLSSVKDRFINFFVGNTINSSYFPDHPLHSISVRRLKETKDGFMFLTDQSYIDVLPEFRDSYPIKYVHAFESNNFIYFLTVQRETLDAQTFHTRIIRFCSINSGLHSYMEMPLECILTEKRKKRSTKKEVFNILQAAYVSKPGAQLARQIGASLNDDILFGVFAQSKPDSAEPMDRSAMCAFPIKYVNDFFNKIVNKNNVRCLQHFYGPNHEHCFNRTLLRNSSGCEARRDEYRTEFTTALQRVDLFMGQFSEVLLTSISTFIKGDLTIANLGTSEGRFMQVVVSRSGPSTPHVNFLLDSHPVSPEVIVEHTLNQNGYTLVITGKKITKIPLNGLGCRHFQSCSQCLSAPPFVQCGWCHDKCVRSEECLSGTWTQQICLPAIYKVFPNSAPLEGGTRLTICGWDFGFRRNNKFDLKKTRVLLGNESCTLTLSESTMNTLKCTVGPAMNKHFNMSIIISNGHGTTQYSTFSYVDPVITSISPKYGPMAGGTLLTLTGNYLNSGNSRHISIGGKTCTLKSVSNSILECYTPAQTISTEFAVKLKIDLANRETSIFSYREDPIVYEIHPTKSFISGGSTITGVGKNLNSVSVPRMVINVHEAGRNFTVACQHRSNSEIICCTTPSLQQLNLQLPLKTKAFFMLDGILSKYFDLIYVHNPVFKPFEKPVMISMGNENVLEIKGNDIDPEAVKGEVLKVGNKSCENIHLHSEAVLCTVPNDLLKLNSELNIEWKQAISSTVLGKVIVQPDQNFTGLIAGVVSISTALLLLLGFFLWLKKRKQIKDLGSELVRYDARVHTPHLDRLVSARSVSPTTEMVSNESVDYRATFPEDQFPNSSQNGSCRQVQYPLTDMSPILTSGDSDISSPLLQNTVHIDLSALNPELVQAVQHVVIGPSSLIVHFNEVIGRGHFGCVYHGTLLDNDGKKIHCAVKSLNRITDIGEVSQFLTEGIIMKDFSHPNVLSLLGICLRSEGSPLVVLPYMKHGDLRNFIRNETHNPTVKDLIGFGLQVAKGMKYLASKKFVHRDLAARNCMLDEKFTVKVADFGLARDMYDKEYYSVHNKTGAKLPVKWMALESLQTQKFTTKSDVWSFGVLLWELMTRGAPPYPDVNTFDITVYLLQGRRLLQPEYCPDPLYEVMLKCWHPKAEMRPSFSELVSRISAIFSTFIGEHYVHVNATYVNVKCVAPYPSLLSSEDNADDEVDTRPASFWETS

[19] = Selectivity ratio of IC50 for IRAK4 (unknown origin) to IC50 for FLT3-ITD mutant (unknown origin)
BaF3 [20] = assay: Antiproliferative activity against mouse BaF3 cells harboring FLT3 D835V mutant assessed as reduction in cell viability incubated for 72 hrs by CellTiter 96 Aqueous One Solution Cell Proliferation Assay; type: functional, cell-based
[21] = target: T3, Serine/threonine-protein kinase Chk1 (Homo sapiens, UniProt O14757)
T3 sequence (O14757 whole entry): T2 sequence (whole entry)
Description: Inhibition of CHK1 (unknown origin) using peptide substrate S1 and ATP as substrate incubated for 1 hr by HTRF assay

[22] = Selectivity ratio of IC50 for TEC (unknown origin) to IC50 for FLT3-ITD mutant (unknown origin)
[23] = Selectivity ratio of IC50 for ASK1 (unknown origin) to IC50 for FLT3-ITD mutant (unknown origin)
[24] = Selectivity ratio of IC50 for PIM1 (unknown origin) to IC50 for FLT3-ITD mutant (unknown origin)
[25] = target: Receptor-type tyrosine-protein kinase FLT3 (Homo sapiens) (UniProt P36888); assay: Inhibition of FLT3 in human MV4-11 cells assessed as inhibition of AKT phosphorylation at Ser473 residue measured after 90 mins by western blot analysis; type: cell-based; settings: dose 20-100 nM
BaF3 [26] = assay: Antiproliferative activity against mouse BaF3 cells harboring FLT3 F691L mutant assessed as reduction in cell viability incubated for 72 hrs by CellTiter 96 Aqueous One Solution Cell Proliferation Assay; type: functional, cell-based
BaF3 [27] = assay: cells; settings: Mus musculus, BaF3, 72 h
Description: Antiproliferative activity against mouse BaF3 cells harboring FLT3-ITD-N701K mutation assessed as reduction in cell viability incubated for 72 hrs by CellTiter 96 Aqueous One Solution Cell Proliferation Assay

[28] = target: Receptor-type tyrosine-protein kinase FLT3 (Homo sapiens) (UniProt P36888); assay: Inhibition of FLT3 in human MV4-11 cells assessed as inhibition of FLT3 phosphorylation at 20 nM measured after 90 mins by western blot analysis; type: cell-based
MV4-11 [29] = assay: cells; settings: Homo sapiens, MV4-11, 72 h
Description: Antiproliferative activity against human MV4-11 cells assessed as reduction in cell viability incubated for 72 hrs by CellTiter 96 Aqueous One Solution Cell Proliferation Assay

hERG (KCNH2) = hERG (KCNH2) (Homo sapiens, UniProt Q12809); assay: Inhibition of hERG expressed in HEK293 cells at 20 uM by whole cell patch clamp analysis; type: toxicity, cell-based; settings: HEK293 cells expressing hERG
Sequence of hERG (KCNH2) (Q12809 whole entry): as the sequence (Q12809 whole entry) above

[30] = target: T1, Voltage-gated inwardly rectifying potassium channel KCNH2; assay: Inhibition of hERG expressed in HEK293 cells assessed as inhibition of tail current at 1 to 10 uM by whole cell patch clamp analysis; type: toxicity, cell-based; settings: hek293, 10 µM, dose 1-10 µM
[31] = Selectivity ratio of IC50 for MET (unknown origin) to IC50 for FLT3-ITD mutant (unknown origin)

Question: For `CC(C)(O)CC(=O)N1CCc2cc(Nc3ncc(C(F)(F)F)c(N[C@H]4CC[C@@H](N)CC4)n3)ccc2C1`, which IC50 [1] is on record?
Answer: 64.3 nM

Question: What about the Ratio IC50 [2] of the same compound?
Answer: > 100

Question: And the “inhibition (INH)” value [3]?
Answer: Active

Question: What about the Ratio IC50 [4] of the same compound?
Answer: > 100

Question: And the inhibition [5]?
Answer: 100%

Question: What about the Activity (MM1.S) of the same compound?
Answer: inactive

Question: And the IC50 (JeKo-1)?
Answer: 260 nM

Question: And the Activity [6]?
Answer: Non-Toxic

Question: What about the AUC(0-t) [7] of the same compound?
Answer: 1570 ng·h/mL

Question: What about the “inhibition (INH)” value [8] of the same compound?
Answer: Active

Question: What about the IC50 [9] of the same compound?
Answer: 58400 nM

Question: What about the Ratio IC50 [10] of the same compound?
Answer: > 100

Question: And the inhibition [11]?
Answer: Dose-Dependent Effect

Question: And the Activity (MV4-11 [12])?
Answer: Active

Question: And the IC50 [13]?
Answer: < 10 nM

Question: What about the Activity [14] of the same compound?
Answer: Non-Toxic

Question: And the MRT inf [15]?
Answer: 5.73 h

Question: And the inhibition [16]?
Answer: Active

Question: What about the Ratio IC50 [17] of the same compound?
Answer: > 100

Question: And the IC50 [18]?
Answer: > 10000 nM

Question: And the Ratio IC50 [19]?
Answer: > 100

Question: What about the Activity (BaF3 [20]) of the same compound?
Answer: Active

Question: What about the IC50 [21] of the same compound?
Answer: 9.8 nM

Question: What about the Ratio IC50 [22] of the same compound?
Answer: > 100

Question: What about the Ratio IC50 [23] of the same compound?
Answer: > 100

Question: And the Ratio IC50 [24]?
Answer: > 100

Question: And the inhibition [25]?
Answer: Dose-Dependent Effect

Question: What about the Activity (BaF3 [26]) of the same compound?
Answer: Active

Question: What about the IC50 (BaF3 [27]) of the same compound?
Answer: 8.2 nM

Question: What about the inhibition [28] of the same compound?
Answer: 100%

Question: What about the IC50 (MV4-11 [29]) of the same compound?
Answer: 0.21 nM

Question: And the inhibition at 20 µM (hERG (KCNH2))?
Answer: 2.37%

Question: What about the “inhibition (INH)” value [30] of the same compound?
Answer: Not Active

Question: And the Ratio IC50 [31]?
Answer: > 100
